Series [1] in a line: Automated shake-flask logD7.4 assay (1-octanol/phosphate buffer pH 7.4). In kind it is physicochemical.
Protocol: The assay starts with transfer of individual compound solutions into pools of 10 compounds, alongside two pool QCs, using a Hamilton STARplus liquid handling workstation. […] This step combines 4 μL each of 10 mM compound solutions to a total of 48 μL in an intermediate plate (pool QCs are at 5 mM each). These and subsequent transfers as outlined below involve fresh pipetting tips to eliminate risks of cross-contamination.
The next assay step involves transfer of 500 μL octanol from a tray to an empty deep well plate, to which 10 μL of each pool is subsequently transferred and thoroughly mixed by repetitive aspiration and dispensing. An octanol-saturated phosphate buffer at pH 7.4 is then added (500 μL) followed by sealing of the content with a PP-based lid. Vigorous shaking of the content is achieved through vortexing for 30 s and equilibration of compound between the two phases is further established through a 3 h incubation on a plate shaker.
Following equilibration, the deep well plate is centrifuged to ensure separation between phases and the plate is next moved back to the Hamilton platform for sampling of 5 μL from the octanol phase. The sample is placed in a first dilution plate together with 495 μL of an AcN:H2O mix (1:2) containing FA (0.1%) and verapamil as internal standard (IS). The acidified and IS containing AcN solution, which is common for the logD7.4 and Sol assays, is referred to as the IS solution. The content is thoroughly mixed and next serially diluted to four additional plates with 10-fold dilutions to maximize the ability to detect weakly concentrated solutions and afford investigations of linearity in response.
After sampling, the remaining octanol is removed from the deep well plate through careful pipetting, followed by sampling from the aqueous buffer. […]
The plates are next brought to the MS instrumentation (Xevo TQS; Waters) and read out using the established UPLC-MS/MS methods. […]
Details of series [2]: method as in PMID 19429424. Conditions: published dried DMSO assays; cited from earlier work.
The next series deals with human plasma. Conditions: cited from earlier work.
Series [3] can be described thus: Dried DMSO solubility assay (Sol), phosphate buffer pH 7.4. Type of series: physicochemical. Conditions: ATM inhibitor project.
Protocol: Unlike the logD7.4 assay compounds are not pooled, but instead 50 μL of individual DMSO stock solutions are transferred to glass vials kept in a 3D printed rack that facilitates subsequent liquid transfers using a 96-well pipetting head on the Hamilton STARplus platform. There is no pool QC in the Sol workflow, instead this is replaced with the inclusion of three QCs, the positioning of which is randomized for each week. Solvent is evaporated and the dried compounds are resolubilized in 500 μL of aqueous phosphate buffer at pH 7.4.
Individual Stir Stixs are added to each glass vial using a drop dispenser from V&P Scientific, Inc., a rubber mat is used to seal the vials, and samples are then equilibrated under mixing for 20–24 h. […]
The process of centrifugation and transfer is repeated to remove any remaining debris, except that the 20 μL supernatant transfer combines sampling and pooling of 10 samples to a pool plate with 200 μL of an IS solution (same as in logD7.4). […] Finally, sample and standard plates are sealed and read out, analyzed, and qualified as described for the logD7.4 assay. Calculated solubility values (in μM) are exported into our internal database ensuring global availability to users.
Series [4] addresses Ataxia Telangiectasia Mutated (ATM) kinase (Homo sapiens, UniProt Q13315). The following applies: ATM inhibitor project.
The conditions of series [5]: QC control, literature value; cited from earlier work.

Here are results for nine compounds from paper PMC7567642, “A Fully Integrated Assay Panel for Early Drug Metabolism and Pharmacokinetics Profiling” (Assay and Drug Development Technologies, 2020).

Molecules are shown by their SMILES. ≈ marks a conversion by molar mass, not a printed value. Read-outs that look alike come from different tables or passages of the source.

Ataxia Telangiectasia Mutated (ATM) kinase, sequence (Q13315 whole entry, species assumed, change not shown): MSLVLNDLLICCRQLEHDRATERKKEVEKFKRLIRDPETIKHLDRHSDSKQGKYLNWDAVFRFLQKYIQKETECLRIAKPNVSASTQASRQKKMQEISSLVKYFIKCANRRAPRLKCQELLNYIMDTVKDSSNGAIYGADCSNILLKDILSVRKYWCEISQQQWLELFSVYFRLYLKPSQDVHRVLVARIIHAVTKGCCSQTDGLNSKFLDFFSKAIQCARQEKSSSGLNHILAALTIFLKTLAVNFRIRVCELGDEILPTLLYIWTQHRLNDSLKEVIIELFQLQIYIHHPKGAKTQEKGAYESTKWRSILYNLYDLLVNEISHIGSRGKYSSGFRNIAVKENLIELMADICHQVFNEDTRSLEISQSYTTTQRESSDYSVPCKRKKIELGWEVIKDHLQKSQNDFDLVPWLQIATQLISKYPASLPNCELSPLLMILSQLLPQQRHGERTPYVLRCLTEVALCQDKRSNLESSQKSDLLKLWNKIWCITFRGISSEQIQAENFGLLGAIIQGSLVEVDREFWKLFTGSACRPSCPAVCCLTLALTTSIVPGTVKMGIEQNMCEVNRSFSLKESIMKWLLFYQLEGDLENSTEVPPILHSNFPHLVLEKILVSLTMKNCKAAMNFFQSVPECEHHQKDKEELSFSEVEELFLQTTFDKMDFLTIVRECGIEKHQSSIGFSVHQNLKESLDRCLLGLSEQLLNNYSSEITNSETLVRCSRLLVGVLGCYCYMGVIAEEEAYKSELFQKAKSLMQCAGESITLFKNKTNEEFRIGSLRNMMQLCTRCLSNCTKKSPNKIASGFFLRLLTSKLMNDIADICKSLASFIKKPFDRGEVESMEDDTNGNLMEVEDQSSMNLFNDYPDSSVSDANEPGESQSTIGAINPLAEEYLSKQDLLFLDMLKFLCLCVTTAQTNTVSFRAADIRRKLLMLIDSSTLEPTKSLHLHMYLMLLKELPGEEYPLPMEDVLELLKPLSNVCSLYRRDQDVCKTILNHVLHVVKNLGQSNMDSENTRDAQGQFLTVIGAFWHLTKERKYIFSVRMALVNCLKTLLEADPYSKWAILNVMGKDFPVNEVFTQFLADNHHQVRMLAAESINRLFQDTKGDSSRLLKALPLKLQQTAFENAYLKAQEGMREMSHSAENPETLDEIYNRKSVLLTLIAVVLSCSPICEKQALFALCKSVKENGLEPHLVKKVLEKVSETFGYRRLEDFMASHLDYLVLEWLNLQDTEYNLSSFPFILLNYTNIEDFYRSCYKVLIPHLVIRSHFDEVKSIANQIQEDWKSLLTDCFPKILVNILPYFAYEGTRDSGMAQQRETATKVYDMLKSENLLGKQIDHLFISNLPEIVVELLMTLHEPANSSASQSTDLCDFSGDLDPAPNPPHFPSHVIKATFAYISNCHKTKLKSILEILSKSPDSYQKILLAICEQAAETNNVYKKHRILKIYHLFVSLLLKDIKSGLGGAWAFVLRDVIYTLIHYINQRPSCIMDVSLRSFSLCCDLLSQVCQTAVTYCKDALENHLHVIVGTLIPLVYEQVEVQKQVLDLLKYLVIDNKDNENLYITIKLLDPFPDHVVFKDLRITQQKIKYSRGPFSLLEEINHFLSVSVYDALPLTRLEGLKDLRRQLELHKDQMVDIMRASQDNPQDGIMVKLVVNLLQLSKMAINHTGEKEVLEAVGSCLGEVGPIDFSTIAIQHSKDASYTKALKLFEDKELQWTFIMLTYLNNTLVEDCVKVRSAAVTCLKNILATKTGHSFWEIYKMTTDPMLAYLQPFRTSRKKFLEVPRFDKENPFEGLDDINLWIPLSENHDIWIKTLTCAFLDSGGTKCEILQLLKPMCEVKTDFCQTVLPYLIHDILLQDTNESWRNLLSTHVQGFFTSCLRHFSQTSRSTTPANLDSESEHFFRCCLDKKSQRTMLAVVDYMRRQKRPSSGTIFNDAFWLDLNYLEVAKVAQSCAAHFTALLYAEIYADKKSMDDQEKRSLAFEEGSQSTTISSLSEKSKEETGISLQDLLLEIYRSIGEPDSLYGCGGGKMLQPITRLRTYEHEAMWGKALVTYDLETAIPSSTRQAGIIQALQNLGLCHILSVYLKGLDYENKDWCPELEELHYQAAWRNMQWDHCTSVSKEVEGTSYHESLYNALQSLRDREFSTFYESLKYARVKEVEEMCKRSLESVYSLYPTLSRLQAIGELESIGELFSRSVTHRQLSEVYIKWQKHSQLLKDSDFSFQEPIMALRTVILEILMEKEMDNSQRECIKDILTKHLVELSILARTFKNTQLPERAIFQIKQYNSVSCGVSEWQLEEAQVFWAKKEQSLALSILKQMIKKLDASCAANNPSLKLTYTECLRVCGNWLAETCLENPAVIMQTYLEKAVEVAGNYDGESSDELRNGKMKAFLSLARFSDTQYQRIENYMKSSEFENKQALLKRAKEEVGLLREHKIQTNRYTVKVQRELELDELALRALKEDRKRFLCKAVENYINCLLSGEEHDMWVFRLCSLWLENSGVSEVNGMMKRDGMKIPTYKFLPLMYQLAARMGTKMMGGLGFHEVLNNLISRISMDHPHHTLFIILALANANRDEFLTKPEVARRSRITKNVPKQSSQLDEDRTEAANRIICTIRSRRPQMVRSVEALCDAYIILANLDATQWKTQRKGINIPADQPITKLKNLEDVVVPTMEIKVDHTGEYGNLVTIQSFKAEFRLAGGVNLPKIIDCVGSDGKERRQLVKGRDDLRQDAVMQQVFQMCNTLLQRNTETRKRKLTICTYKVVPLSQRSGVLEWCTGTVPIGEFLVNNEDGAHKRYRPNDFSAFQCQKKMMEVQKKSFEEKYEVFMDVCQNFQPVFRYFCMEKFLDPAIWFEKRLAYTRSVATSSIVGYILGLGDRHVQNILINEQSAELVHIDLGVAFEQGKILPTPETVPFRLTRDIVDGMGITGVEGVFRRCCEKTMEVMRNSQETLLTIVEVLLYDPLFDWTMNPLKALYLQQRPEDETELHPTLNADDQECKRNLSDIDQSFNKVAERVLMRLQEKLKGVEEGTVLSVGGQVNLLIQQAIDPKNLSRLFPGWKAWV

`COC(=O)C1=C(C)NC(C)=C(C(=O)OCCN(C)Cc2ccccc2)C1c1cccc([N+](=O)[O-])c1` (centres unmarked) [nicardipine, Nicardipine] had a logD at 3 h in series [1] (1-octanol/phosphate buffer pH 7.4, pH 7.4, QC control, in-house data) of 4.5.
In the case of `O=C1NC(=O)C(c2ccccc2)(c2ccccc2)N1` [phenytoin, Phenytoin], the solubility in series [2] was 86 µM (≈ 21.7 µg/mL).
Take `CC(C)n1c(=O)n(C)c2cnc3cc(F)c(-c4ccc(OCCCN5CCCCC5)nc4)cc3c21`: in series [1] (pH 7.4, ATM inhibitor project, DMPK Wave 1 panel), the logD at 3 h came out at 2.7.
`CC(=O)CC(c1ccccc1)c1c(O)c2ccccc2oc1=O` (centres unmarked) [warfarin, Warfarin]: the “fu (fraction unbound)” value with human plasma is given as approximately 1%.
Regarding `CCC(CC)CNc1c(C(N)=O)cnc2ccc(C#N)cc12` [initial starting point], the “solubility (in words)” value in series [3] was “low μM solubility”. In addition, in series [4], the “potency on the target protein (in words)” value is on record as “μM potency”. Moreover, in series [1] (ATM inhibitor project, DMPK Wave 1 panel), the logD7.4 came out at 3.5.
In the case of `COc1ccc(CCN2CCC(Nc3nc4ccccc4n3Cc3ccc(F)cc3)CC2)cc1` [astemizole, Astemizole], the solubility in series [2] was 2.9 µM (≈ 1.33 µg/mL).
Take `CN(C)CCCN1c2ccccc2Sc2ccc(Cl)cc21` [chlorpromazine, Chlorpromazine]: in series [2], the solubility was 450 µM (≈ 143 µg/mL).
For `CN(C)CCC=C1c2ccccc2C=Cc2ccccc21` [cyclobenzaprine, Cyclobenzaprine], the logD7.4 in series [5] is on record as 2.8.
Regarding `COCCc1ccc(OCC(O)CNC(C)C)cc1` (centres unmarked) [metoprolol, Metoprolol], the “fu (fraction unbound)” value in the series with human plasma is reported as approximately 85%.
